Source: the NIST ThermoML archive (doi:10.1016/j.jct.2014.07.012)

Experiment: mn = molality of the nth substance listed, in mol/kg
Conditions: 100 kPa, Liquid; for speed of sound: Frequency=3 MHz, Sing-around technique in a fixed-path interferometer; for mass density: Vibrating tube method

CCN(CC)C(N)=O [1,1-diethylurea] + O
Conditions	mass density, 288.15 K [kg/m3]	mass density, 293.15 K [kg/m3]	mass density, 298.15 K [kg/m3]	mass density, 303.15 K [kg/m3]	mass density, 308.15 K [kg/m3]	speed of sound, 288.15 K [m/s]	speed of sound, 293.15 K [m/s]	speed of sound, 298.15 K [m/s]	speed of sound, 303.15 K [m/s]	speed of sound, 308.15 K [m/s]
m1 = 0.0535	999.376	998.462	997.288	995.875	994.243	–	–	–	–	–
m1 = 0.0856	999.546	998.62	997.435	996.012	994.369	1474.9	1490.4	1503.9	1515.7	1525.8
m1 = 0.1181	999.725	998.786	997.589	996.154	994.501	1478	1493.2	1506.6	1518.1	1528
m1 = 0.1603	999.959	999.002	997.788	996.338	994.672	1482	1496.8	1509.9	1521.2	1530.8
m1 = 0.2142	1000.27	999.288	998.052	996.585	994.898	1487	1501.4	1514.1	1525	1534.3
m1 = 0.2689	1000.59	999.586	998.328	996.837	995.135	1491.9	1506	1518.2	1528.8	1537.8
m1 = 0.3254	1000.93	999.905	998.628	997.108	995.381	1496.9	1510.3	1522.2	1532.6	1541.3

CCCCNC(N)=O [N-butylurea] + O
Conditions	mass density, 288.15 K [kg/m3]	mass density, 293.15 K [kg/m3]	mass density, 298.15 K [kg/m3]	mass density, 303.15 K [kg/m3]	mass density, 308.15 K [kg/m3]	speed of sound, 288.15 K [m/s]	speed of sound, 293.15 K [m/s]	speed of sound, 298.15 K [m/s]	speed of sound, 303.15 K [m/s]	speed of sound, 308.15 K [m/s]
m1 = 0.0486	999.444	998.527	997.349	995.933	994.297	1471.6	1487.2	1501.1	1513.1	1523.5
m1 = 0.0781	999.638	998.707	997.514	996.086	994.438	1474.5	1490	1503.6	1515.4	1525.6
m1 = 0.1078	999.835	998.889	997.683	996.243	994.583	1477.5	1492.7	1506.1	1517.7	1527.6
m1 = 0.1473	1000.1	999.134	997.909	996.448	994.774	1481.3	1496.2	1509.3	1520.6	1530.3
m1 = 0.1974	1000.44	999.45	998.201	996.718	995.022	1486.1	1500.6	1513.3	1524.3	1533.7
m1 = 0.2475	1000.78	999.763	998.489	996.985	995.266	1490.8	1504.9	1517.3	1527.9	1536.9
m1 = 0.2986	1001.14	1000.09	998.789	997.259	995.516	1495.5	1509.2	1521.2	1531.5	1540.2

NC(N)=O [urea] + O
Conditions	mass density, 288.15 K [kg/m3]	mass density, 293.15 K [kg/m3]	mass density, 298.15 K [kg/m3]	mass density, 303.15 K [kg/m3]	mass density, 308.15 K [kg/m3]	speed of sound, 288.15 K [m/s]	speed of sound, 293.15 K [m/s]	speed of sound, 298.15 K [m/s]	speed of sound, 303.15 K [m/s]	speed of sound, 308.15 K [m/s]
m1 = 0.0504	999.922	999.019	997.847	996.442	994.816	1468.2	1483.9	1498	1510.3	1520.9
m1 = 0.0807	1000.43	999.511	998.329	996.911	995.281	1469.1	1484.8	1498.8	1511	1521.6
m1 = 0.1107	1000.92	999.994	998.802	997.378	995.738	1470	1485.6	1499.6	1511.8	1522.2
m1 = 0.151	1001.58	1000.64	999.436	997.998	996.351	1471.3	1486.8	1500.6	1512.7	1523.1
m1 = 0.2005	1002.39	1001.43	1000.21	998.757	997.097	1472.8	1488.1	1501.9	1513.9	1524.2
m1 = 0.2512	1003.21	1002.23	1000.99	999.529	997.855	1474.1	1489.5	1503.1	1515	1525.3

CN(C)C(N)=O [N,N-dimethylurea] + O
Conditions	mass density, 288.15 K [kg/m3]	mass density, 293.15 K [kg/m3]	mass density, 298.15 K [kg/m3]	mass density, 303.15 K [kg/m3]	mass density, 308.15 K [kg/m3]	speed of sound, 288.15 K [m/s]	speed of sound, 293.15 K [m/s]	speed of sound, 298.15 K [m/s]	speed of sound, 303.15 K [m/s]	speed of sound, 308.15 K [m/s]
m1 = 0.0526	999.644	998.733	997.562	996.154	994.527	1469.9	1485.7	1499.7	1511.8	1522.3
m1 = 0.0842	999.97	999.051	997.869	996.454	994.818	1471.8	1487.5	1501.3	1513.4	1523.7
m1 = 0.1149	1000.29	999.36	998.171	996.746	995.103	1473.7	1489.2	1502.9	1514.8	1525
m1 = 0.1572	1000.73	999.785	998.583	997.148	995.495	1476.3	1491.6	1505.1	1516.8	1526.8
m1 = 0.2104	1001.28	1000.32	999.103	997.653	995.988	1479.6	1494.6	1507.8	1519.3	1529.1
m1 = 0.2629	1001.83	1000.85	999.617	998.153	996.474	1482.6	1497.4	1510.4	1521.7	1531.3
m1 = 0.318	1002.4	1001.4	1000.15	998.673	996.98	1485.9	1500.4	1513.2	1524.2	1533.6

CCCNC(N)=O [N-propylurea] + O
Conditions	mass density, 288.15 K [kg/m3]	mass density, 293.15 K [kg/m3]	mass density, 298.15 K [kg/m3]	mass density, 303.15 K [kg/m3]	mass density, 308.15 K [kg/m3]	speed of sound, 288.15 K [m/s]	speed of sound, 293.15 K [m/s]	speed of sound, 298.15 K [m/s]	speed of sound, 303.15 K [m/s]	speed of sound, 308.15 K [m/s]
m1 = 0.0494	999.566	998.653	997.48	996.069	994.44	–	–	–	–	–
m1 = 0.079	999.848	998.924	997.74	996.318	994.678	–	–	–	–	–
m1 = 0.0791	–	–	–	–	–	1473.3	1488.9	1502.6	1514.5	1524.8
m1 = 0.1089	1000.13	999.198	998.003	996.573	994.925	1475.8	1491.1	1504.7	1516.4	1526.5
m1 = 0.1484	1000.52	999.564	998.356	996.91	995.249	1479	1494.1	1507.4	1518.9	1528.8
m1 = 0.1983	1000.99	1000.02	998.792	997.329	995.652	1483	1497.8	1510.8	1522	1531.7
m1 = 0.249	1001.49	1000.49	999.244	997.763	996.069	1487.1	1501.6	1514.2	1525.2	1534.6
m1 = 0.3012	1001.99	1000.97	999.704	998.202	996.489	1491.1	1505.3	1517.7	1528.4	1537.5

O [water] + CCCCNC(N)=O
Conditions	mass density [kg/m3]
308.15 K, m2 = 0	994.065
